Literature values, collected in US8597613B2, “Radiolabeled lymphatic staining agents and methods for making” (Iso-Tex Diagnostics, Inc, priority 2004, dated 2013).

Conditions: 0.1-0.5 cc injected into the breast following wire-localization procedures

CN(C)c1ccc2nc3ccc(=[N+](C)C)cc-3sc2c1 [methylene blue, phenothiazin-5-ium-3,7-bis(dimethylamino)-chloride]
reported adverse events: no reported adverse events
